In patent US20120071459A1, “BIS-PYRIDYLPYRIDONES AS MELANIN-CONCENTRATING HORMONE RECEPTOR 1 ANTAGONISTS” (GlaxoSmithKline LLC, priority 2009, published 2012):

Molecular target: T1, hMCHR1 (Homo sapiens, UniProt Q99705)
T1 construct: expressed in transfected cells; host or cells: HEK293
Test: MCHR1 pIC50 Determination FLIPR Assay
Type: cell-based
Conditions: HEK293 cells stably transfected with hMCHR1; MCH challenge at 4xEC50; in at least one experimental run
Procedure: MCHR1 pIC50 Determination FLIPR™ Assay: HEK293 cells stably transfected with hMCHR1 were propagated as adherent cultures at 37° C. in a humidified incubator. Cells were split 1:8 at 90% confluency two times per week. New cell stocks were recovered from storage every two months. Cells were plated in black 384-well plates (Greiner) 24 hours prior to assay at 15,000 cells/well in 50 μL DMEM/F12, 10% FBS, 2 mM l-glutamine. Compounds to be profiled were prepared by making a stock solution at 3×10^−3M in 100% DMSO. The stock solutions were serially diluted 1:4 in 100% DMSO using JANUS (PerkinElmer) liquid handling instrument to allow for an 11 point curve in singlicate. At the time of the assay, the media was removed from the cell plate by aspiration, followed by the addition of 20 μL of loading buffer (Calcium 4 Kit, […]). Following 50 min incubation at 37° C., 10 μL of compound was added to the plates via the FLIPR™ instrument ([…]). The plates were incubated at room temperature for 15 minutes along with an MCH peptide agonist challenge plate. On the FLIPR™, a basal response was collected over 10 seconds followed by the addition of 10 μL of MCH challenge concentration at 4×EC50. Data was collected over 4 minutes and subjected to a nonlinear regression analysis curve fitting program to generate pIC50s.

T1 sequence (Q99705 whole entry): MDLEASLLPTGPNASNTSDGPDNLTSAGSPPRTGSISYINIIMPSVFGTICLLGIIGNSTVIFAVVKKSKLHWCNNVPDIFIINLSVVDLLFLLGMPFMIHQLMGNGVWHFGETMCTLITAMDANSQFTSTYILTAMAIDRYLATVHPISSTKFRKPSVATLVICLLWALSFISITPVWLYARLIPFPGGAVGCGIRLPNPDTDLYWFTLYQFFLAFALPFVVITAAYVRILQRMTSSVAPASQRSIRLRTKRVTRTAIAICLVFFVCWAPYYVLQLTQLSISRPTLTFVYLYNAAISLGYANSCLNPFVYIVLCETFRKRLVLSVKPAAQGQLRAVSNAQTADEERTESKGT

SMILES | IC50
O=C1N(c2ccc(-n3ccc(OCc4ccc(Cl)cn4)cc3=O)cn2)CC12CCNCC2 [Example 4, 4-{[(5-chloro-2-pyridinyl)methyl]oxy}-6′-(1-oxo-2,7-diazaspiro[3.5]nonan-2-yl)-2H-1,3′-bipyridin-2-one] | 49 nM
O=C1CC2(CCCN(c3ccc(-n4ccc(OCc5ccc(Cl)cn5)cc4=O)cn3)C2)C(=O)N1 (stereo not drawn) [Example 11] | 50 nM
O=c1cc(OCc2ccc(Cl)cn2)ccn1-c1ccc(N2CCC3(CC2)CNC3)nc1 [Example 12] | 54 nM
